# Laboratory results taken from US12479849B2, “EGFR inhibitors for the treatment of cancer” (Hoffmann-La Roche Inc., priority 2019, dated 2025).
# Target: T1, EGFR TMLRCS (Homo sapiens, UniProt P00533, C797S/L858R/T790M)
# T1 construct: host or cells: BaF3-TMLRCS (Ba/F3 cells, kept under puromycin selection)
# Assay: HTRF Phospho EGFR TMLRCS Assay (Cellular)
# Assay type: cell-based
# Conditions: BaF3-TMLRCS cell line, 4 hours incubation, Phospho-EGFR HTRF readout
# Method: HTRF Phospho EGFR TMLRCS Assay (Cellular)
# BaF3-TMLRCS cell line were obtained from Crownbio (San Diego, CA, USA). Cells were maintained at 37° C., 5% CO2 in RPMI ATCC (Gibco 31870)+2 mM Glutamine+0.5 μg/ml Puromycin supplemented with 10% fetal bovine serum (FBS) (Gibco).
# Cells are transferred as above to Greiner Bio-One, Nr. 784-08 micro-titerplate at 20000 cells/well in 12.5 μl of growth medium/well after the plates had been pre-filled with 12.5 nl of DMSO solutions of the to be tested compounds (in dose response) or DMSO only. After spinning the plates at 300×g for 30 seconds the cells were incubated for 4 hours at 37 C, 5% CO2, 95% humidity. The cells were lysed by adding to the compound mix 4 μl/well of the supplemented lysis buffer (Cis-bio, Phospho-EGFR HTRF kit, 64EG1PEH), followed by incubation for 30 min at room temperature with shaking (400 rpm). The plates were then frozen and stored overnight at −80 C. On the next day and after thawing the plates, 4 μl of a mixture of anti-Phospho-EGFR Cryptate and of anti-Phospho-EGFR-d2 antibody solutions prepared in the supplied detection buffer was added to each well. The lidded plates were then incubated for 4 h at room temperature before reading the fluorescence emission at 616 and 665 nm using an Envision reader (Perkin Elmer). Data was analyzed in similar fashion as above using the normalized ratio of the 665 to 616 signals multiplied by 10000.
# T1 sequence (P00533 25-1210 T790M/C797S/L858R): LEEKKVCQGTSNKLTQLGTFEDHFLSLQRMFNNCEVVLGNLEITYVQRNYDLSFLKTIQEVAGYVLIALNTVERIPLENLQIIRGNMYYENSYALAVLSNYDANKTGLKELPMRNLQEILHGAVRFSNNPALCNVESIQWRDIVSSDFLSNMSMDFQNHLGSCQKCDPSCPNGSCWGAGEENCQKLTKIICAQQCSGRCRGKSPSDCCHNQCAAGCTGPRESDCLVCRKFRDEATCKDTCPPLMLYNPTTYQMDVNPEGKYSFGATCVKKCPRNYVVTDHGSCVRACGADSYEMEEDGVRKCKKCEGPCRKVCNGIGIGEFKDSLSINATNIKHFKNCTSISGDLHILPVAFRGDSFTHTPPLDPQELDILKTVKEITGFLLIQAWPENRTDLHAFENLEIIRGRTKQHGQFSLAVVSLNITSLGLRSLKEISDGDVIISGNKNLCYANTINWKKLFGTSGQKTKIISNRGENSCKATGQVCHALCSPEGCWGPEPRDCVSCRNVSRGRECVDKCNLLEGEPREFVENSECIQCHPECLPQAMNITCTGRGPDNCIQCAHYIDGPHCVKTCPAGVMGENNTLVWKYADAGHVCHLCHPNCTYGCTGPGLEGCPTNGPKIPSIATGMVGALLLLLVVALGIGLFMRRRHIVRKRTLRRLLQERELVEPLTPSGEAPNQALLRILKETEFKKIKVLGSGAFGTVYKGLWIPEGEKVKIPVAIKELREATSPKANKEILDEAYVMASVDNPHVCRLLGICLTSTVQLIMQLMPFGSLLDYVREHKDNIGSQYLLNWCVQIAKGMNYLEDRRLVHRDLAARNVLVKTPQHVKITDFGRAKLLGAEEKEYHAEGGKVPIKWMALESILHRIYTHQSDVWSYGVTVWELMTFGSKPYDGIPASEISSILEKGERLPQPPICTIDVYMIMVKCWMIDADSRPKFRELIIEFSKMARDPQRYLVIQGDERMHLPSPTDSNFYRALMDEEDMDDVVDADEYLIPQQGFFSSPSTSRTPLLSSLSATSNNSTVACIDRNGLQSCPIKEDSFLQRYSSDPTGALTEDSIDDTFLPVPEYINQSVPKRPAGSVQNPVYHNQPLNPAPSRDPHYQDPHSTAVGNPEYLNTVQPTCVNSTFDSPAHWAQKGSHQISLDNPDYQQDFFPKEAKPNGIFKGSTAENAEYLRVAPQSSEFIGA
row,SMILES,IC50 [nM]
1,"O=C(Nc1nccs1)C(c1ncn2c1C[C@@H](F)C2)n1cc2c(Cl)cc(-c3ccc(OCCN4CCC5(CC4)CC(O)C5)cc3)c(Cl)c2n1 (mixture of isomers) [Example 92, rac-2-(4,7-Dichloro-6-(4-(2-(2-hydroxy-7-azaspiro[3.5]nonan-7-yl)ethoxy)phenyl)-2H-indazol-2-yl)-2-((R)-6-fluoro-6,7-dihydro-5H-pyrrolo[1,2-c]imidazol-1-yl)-N-(thiazol-2-yl)acetamide]",13
2,"CN(Cc1ccc(-c2cc(Cl)c3cn(C(C(=O)Nc4nccs4)c4ncn5c4C[C@@H](F)C5)nc3c2Cl)cc1)C1CCC(O)CC1 (mixture of isomers) [Example 94, rac-2-(4,7-Dichloro-6-(4-(((4-hydroxycyclohexyl)(methyl)amino)methyl)phenyl)-2H-indazol-2-yl)-2-((R)-6-fluoro-6,7-dihydro-5H-pyrrolo[1,2-c]imidazol-1-yl)-N-(thiazol-2-yl)acetamide]",4
3,"CN(Cc1ccc(-c2cc(Cl)c3cn(C(C(=O)Nc4nccs4)c4ncn5c4C[C@@H](F)C5)nc3c2Cl)cc1)C1CCCC(O)C1 (mixture of isomers) [Example 95, rac-2-(4,7-Dichloro-6-(4-(((3-hydroxycyclohexyl)(methyl)amino)methyl)phenyl)-2H-indazol-2-yl)-2-((R)-6-fluoro-6,7-dihydro-5H-pyrrolo[1,2-c]imidazol-1-yl)-N-(thiazolyl)acetamide]",6
4,"CN1CCN(Cc2ccc(-c3cc(Cl)c4cn(C(C(=O)Nc5nccs5)c5ncn6c5C[C@@H](F)C6)nc4c3Cl)cc2)CC1 (mixture of isomers) [Example 96, rac-2-(4,7-Dichloro-6-(4-((4-methylpiperazin-1-yl)methyl)phenyl)-2H-indazol-2-yl)-2-((R)-6-fluoro-6,7-dihydro-5H-pyrrolo[1,2-c]imidazol-1-yl)-N-(thiazol-2-yl)acetamide]",6
5,"CC1(O)CCN(Cc2ccc(-c3cc(Cl)c4cn(C(C(=O)Nc5nccs5)c5ncn6c5C[C@@H](F)C6)nc4c3Cl)cc2)CC1 (mixture of isomers) [Example 97, rac-2-(4,7-Dichloro-6-(4-((4-hydroxy-4-methylpiperidin-1-yl)methyl)phenyl)-2H-indazol-2-yl)-2-((R)-6-fluoro-6,7-dihydro-5H-pyrrolo[1,2-c]imidazol-1-yl)-N-(thiazol-2-yl)acetamide]",5
6,"COC1CCN(Cc2ccc(-c3cc(Cl)c4cn(C(C(=O)Nc5nccs5)c5ncn6c5C[C@@H](F)C6)nc4c3Cl)cc2)C1 (mixture of isomers) [Example 98, rac-2-(4,7-Dichloro-6-(4-((3-methoxypyrrolidin-1-yl)methyl)phenyl)-2H-indazol-2-yl)-2-((R)-6-fluoro-6,7-dihydro-5H-pyrrolo[1,2-c]imidazol-1-yl)-N-(thiazol-2-yl)acetamide]",6
7,"O=C(Nc1nccs1)C(c1ncn2c1C[C@@H](F)C2)n1cc2c(Cl)cc(-c3ccc(CN4C[C@H]5COC[C@H]5C4)cc3)c(Cl)c2n1 (mixture of isomers) [Example 99, rac-2-(4,7-Dichloro-6-(4-0(3aR,6aS)-tetrahydro-1H-furo[3,4-c]pyrrol-5(3H)-yl)methyl)phenyl)-2H-indazol-2-yl)-2-((R)-6-fluoro-6,7-dihydro-5H-pyrrolo[1,2-c]imidazol-1-yl)-N-(thiazol-2-yl)acetamide]",6
8,"CC(O)C1CN(CCc2ccc(-c3cc(Cl)c4cn(C(C(=O)Nc5nccs5)c5ncn6c5C[C@@H](F)C6)nc4c3Cl)cc2)C1 (mixture of isomers) [Example 100, rac-2-(4,7-Dichloro-6-(4-(2-(3-(1-hydroxyethyl)azetidin-1-yl)ethyl)phenyl)-2H-indazol-2-yl)-2-((R)-6-fluoro-6,7-dihydro-5H-pyrrolo[1,2-c]imidazol-1-yl)-N-(thiazol-2-yl)acetamide]",12
9,"COCCNCCc1ccc(-c2cc(Cl)c3cn(C(C(=O)Nc4nccs4)c4ncn5c4C[C@@H](F)C5)nc3c2Cl)cc1 (mixture of isomers) [Example 101, rac-2-(4,7-Dichloro-6-(4-(24(2-methoxyethyl)amino)ethyl)phenyl)-2H-indazol-2-yl)-2-((R)-6-fluoro-6,7-dihydro-5H-pyrrolo[1,2-c]imidazol-1-yl)-N-(thiazol-2-yl)acetamide]",10
10,"O=C(Nc1nccs1)C(c1ncn2c1C[C@@H](F)C2)n1cc2c(Cl)cc(-c3ccc(N4CCOCC4)cc3)c(C(F)F)c2n1 (mixture of isomers) [Example 106, rac-2-(4-Chloro-7-(difluoromethyl)-6-(4-morpholinophenyl)-2H-indazol-2-yl)-2-((R)-6-fluoro-6,7-dihydro-5H-pyrrolo[1,2-c]imidazol-1-yl)-N-(thiazol-2-yl)acetamide]",8
11,"CCN1CCC(c2ccc(-c3cc(Cl)c4cn(C(C(=O)Nc5nccs5)c5ncn6c5C[C@@H](F)C6)nc4c3)cc2)CC1 (mixture of isomers) [Example 117, rac-2-(4-Chloro-6-(4-(1-ethylpiperidin-4-yl)phenyl)-2H-indazol-2-yl)-2-((R)-6-fluoro-6,7-dihydro-5H-pyrrolo[1,2-c]imidazol-1-yl)-N-(thiazol-2-yl)acetamide]",9
12,"Cc1cc(-c2ccc(C3CCN(CC(C)F)CC3)cc2)c(Cl)c2nn(C(C(=O)Nc3nccs3)c3ncn4c3C[C@@H](F)C4)cc12 (mixture of isomers) [Example 131, rac-2-(7-Chloro-6-(4-(1-(2-fluoropropyl)piperidin-4-yl)phenyl)-4-methyl-2H-indazol-2-yl)-2-((R)-6-fluoro-6,7-dihydro-5H-pyrrolo[1,2-c]imidazol-1-yl)-N-(thiazol-2-yl)acetamide]",192
13,"Cc1cc(-c2ccc(OCCN3CCC(CO)CC3)cc2)c(Cl)c2nn(C(C(=O)Nc3nccs3)c3ncn4c3C[C@@H](F)C4)cc12 (mixture of isomers) [Example 132, rac-2-(7-Chloro-6-(4-(2-(4-(hydroxymethyl)piperidin-1-yl)ethoxy)phenyl)-4-methyl-2H-indazol-2-yl)-2-((R)-6-fluoro-6,7-dihydro-5H-pyrrolo[1,2-c]imidazol-1-yl)-N-(thiazol-2-yl)acetamide]",7
14,"CCN1CC[C@H](c2ccc(-c3cc(Cl)c4cn(C(C(=O)Nc5nccs5)c5ncn6c5C[C@@H](F)C6)nc4c3Cl)cc2)[C@@H](F)C1 (single isomer, unassigned) [Example 37]",10
15,"O=C(Nc1nccs1)C(c1ncn2c1C[C@@H](F)C2)n1cc2c(Cl)cc(-c3ccc([C@@H]4CCN(CCO)C[C@H]4F)cc3)c(Cl)c2n1 (single isomer, unassigned) [Example 54]",5
16,"O=C(Nc1nccs1)C(c1ncn2c1C[C@@H](F)C2)n1cc2c(Cl)cc(-c3ccc([C@@H]4CCN(C5CC(O)C5)C[C@H]4F)cc3)c(Cl)c2n1 (single isomer, unassigned) [Example 55]",5
17,"CCN1CC[C@@H](c2ccc(-c3cc(C)c4cn(C(C(=O)Nc5nccs5)c5ncn6c5C[C@@H](F)C6)nc4c3C)cc2)[C@H](F)C1 (single isomer, unassigned) [Example 119]",14
18,"CCN1CC[C@@H](c2ccc(-c3cc(C)c4cn(C(C(=O)Nc5nccs5)c5ncn6c5CCC6)nc4c3Cl)cc2)[C@H](F)C1 (single isomer, unassigned) [Example 127]",9
19,"CCN1CC[C@@H](c2ccc(-c3cc(C)c4cn(C(C(=O)Nc5nccs5)c5ncn6c5C[C@@H](F)C6)nc4c3Cl)cc2)[C@H](F)C1 (single isomer, unassigned) [Example 129]",10
20,"CCN1CCN(c2ccc(-c3cc(Cl)c4cn(C(C(=O)Nc5nccs5)c5ncn6c5C[C@@H](F)C6)nc4c3Cl)cc2)CC1 (stereo partly drawn) [Example 26, 2-(4,7-Dichloro-6-(4-(4-ethylpiperazin-1-yl)phenyl)-2H-indazol-2-yl)-2-((R)-6-fluoro-6,7-dihydro-5H-pyrrolo[1,2-c]imidazol-1-yl)-N-(thiazol-2-yl)acetamide]",4
21,"O=C(Nc1nccs1)C(c1ncn2c1C[C@@H](F)C2)n1cc2c(Cl)cc(-c3cnc(N4CCOCC4)nc3)c(Cl)c2n1 (stereo partly drawn) [Example 27, 2-(4,7-Dichloro-6-(2-morpholinopyrimidin-5-yl)-2H-indazol-2-yl)-2-((R)-6-fluoro-6,7-dihydro-5H-pyrrolo[1,2-c]imidazol-1-yl)-N-(thiazol-2-yl)acetamide]",5
22,"O=C(Nc1nccs1)C(c1ncn2c1C[C@@H](F)C2)n1cc2c(Cl)cc(-c3ccc(C4CCN(C5CC5)CC4)cc3)c(Cl)c2n1 (stereo partly drawn) [Example 28, 2-(4,7-Dichloro-6-(4-(1-cyclopropylpiperidin-4-yl)phenyl)-2H-indazol-2-yl)-2-((R)-6-fluoro-6,7-dihydro-5H-pyrrolo[1,2-c]imidazol-1-yl)-N-(thiazol-2-yl)acetamide]",17
23,"O=C(Nc1nccs1)C(c1ncn2c1C[C@@H](F)C2)n1cc2c(Cl)cc(-c3ccc(C4CCN(CCF)CC4)cc3)c(Cl)c2n1 (stereo partly drawn) [Example 33, 2-(4,7-Dichloro-6-(4-(1-(2-fluoroethyl)piperidin-4-yl)phenyl)-2H-indazol-2-yl)-2-((R)-6-fluoro-6,7-dihydro-5H-pyrrolo[1,2-c]imidazol-1-yl)-N-(thiazol-2-yl)acetamide]",7
